Results from US10420751B2, “Methods of treating inflammatory bowel disease with AMD3100 and tacrolimus” (priority 2009, dated 2019).
Where two headings read alike, the source gives them in different places.

Experiments:
[1] = biological target: CXCR4 chomokin receptor (Homo sapiens, UniProt P61073); conditions: Peled et al.; read-out: IC50, binds and inhibits CXCR4; cited from earlier work
[2] = system: liver allografts (DA into GFP-Lewis rats); assay: Histology (H&E), GFP microscopy and Xenogen imaging of small liver allografts; assay type: in vivo, rat; conditions: liver allografts 7 days after transplantation, versus control group
Description: Transplanted rats were divided by four groups: (1) control group (treated with same volume of saline); (2) low dose of immunosuppressant (FK-506, 0.1 mg/kg/day); (3) stem cell mobilizer (AMD3100, 1 mg/kg/day); and (4) combination of low dose FK-506 and AMD3100. AMD3100 and/or FK-506 were injected subcutaneously immediately after reperfusion and day 1, 2, 3 and 7 following liver transplantation (FIG. 1). Some of the animals were sacrificed at day 3, 7 and 10 after transplantation and liver tissue, spleen and peripheral blood were collected.
Histological changes in liver tissue sections were evaluated by H&E staining. Recipient-derived GFP positive cells in liver tissue sections were analyzed by confocal fluorescence microscopy.
GFP whole-organ fluorescence was measured using the Xenogen system.

[3] = system: small liver allograft (DA into Lewis rats); assay: Small liver transplantation, acute rejection model: survival; conditions: for recipient survival / liver allograft acceptance: small liver DA into Lewis, FK-506 0.1 mg/kg/day and/or AMD3100 1 mg/kg/day s.c. day 0,1,2,3,7, controls rejected within 12 days; for survival of one of five recipients: small liver, low dose FK-506 0.1 mg/kg/day alone
Description: Orthotopic liver transplantation (OLT) was performed under isoflurane (Abbott laboratories, North Chicago, Ill.) inhalation anesthesia according to a method modified from previously described. Small liver transplantation consisted of removal of the left lateral lobe, the left portion of the median lobe, and the anterior and posterior caudate lobes. This reduced the liver mass by about 50%. The livers were flushed in situ with 10 ml cold saline via the portal vein, explanted and immersed in cold saline solution. The host liver was excised by ligation and division of the right adrenal and lumbar veins. The hepatic artery was ligated and divided. The bile duct was cannulated by insertion of a tube 2 mm in length (outer diameter, 1.2 mm) via choledocotomy and secured with a circumferential 8-0 silk suture. […] The suprahepatic vena cava was pulled down using a cotton tape passed around the host liver and cross-clamped with a baby Statinksy clamp. The vessels were divided and liver was removed. The donor suprahepatic vena cava was anstomosed end-to-end with the host suprahepatic vena cava with running 8-0 prolene. The portal vein and infra hepatic vena cava were anastomosed using the cuff technique described previously. The common bile duct of the donor was cannulated with the small tube residing in the host bile duct and tied in place. The hepatic artery was not reconstructed.
Some of the animals were sacrificed at day 3, 7 and 10 after transplantation and liver tissue, spleen and peripheral blood were collected.
To test this hypothesis, liver transplants from dark agouti (DA) rats into Lewis rats, i.e. the rejection model were performed. Recipient rats were treated with a hematopoietic stem cell mobilizer (plerixafor) and/or low dose immunosuppressant (tacrolimus). Transplanted rats were divided into four groups: 1) a control group treated with saline), 2) treatment with low dose immunosuppressant (tacrolimus, 0.1 mg/kg/day), 3) stem cell mobilizer (plerixafor (AMD3100), 1 mg/kg/day) alone, or 4) a combination of low dose tacrolimus and plerixafor.
In small liver transplantation rats, plerixafor and/or tacrolimus were injected subcutaneously immediately after reperfusion and on days 1, 2, 3 and 7 following transplantation. In whole liver transplantation rats, plerixafor and/or tacrolimus were injected subcutaneously immediately after reperfusion and on days 1, 2, 3, 7, 10 and 15 following transplantation. Animals from each group were sacrificed on post-op days 3, 7 and 10 and liver tissue, spleen and peripheral blood were collected.

[4] = system: skin xenograft (C57/B6 mice into Lewis rats); assay: Skin xenograft survival, mouse into rat; assay type: in vivo; conditions: FK 0.1 mg/kg and/or AMD 1 mg/kg
[5] = system: cell migration stimulated by CXCL12; conditions: Peled et al.; cited from earlier work
[6] = system: kidney allograft (DA to Lewis); assay: Orthotopic kidney transplantation, acute rejection model: survival; assay type: in vivo, rat; conditions: FK 0.05 mg/kg and/or AMD 1 mg/kg s.c.; controls rejected within 10 days
Description: Specifically, the DA to Lewis model of acute rejection was studied. Briefly, donor kidneys obtained from male DA rats were flushed with 10 ml cold saline and were stored at 4° C. while the recipient to be prepared. Total cold ischemic time was no longer than 40 minutes. Lewis male recipients were transplanted following left native nephrectomy. The donor renal artery, vein and ureter were anastomosed to the recipient renal artery, vein and ureter. The anastomosis was completed using 10-0 silk sutures. The right native kidney was removed before closing the abdomen.
AMD3100 were injected subcutaneously immediately after reperfusion (day 0) and day 2, 4 and 6 following kidney transplantation. […] Treatments were repeated in combination treated group at 1, 2 and 3 months after transplantation. Some of animals were sacrificed at day 7 and 30 after transplantation and kidney tissue, spleen and peripheral blood were collected.

[7] = system: whole liver allograft (DA into Lewis rats); assay: Whole liver transplantation, rejection model: survival; conditions: s.c. day 0,1,2,3,7,10,15, controls rejected within twelve days
Description: In whole liver transplantation rats, plerixafor and/or tacrolimus were injected subcutaneously immediately after reperfusion and on days 1, 2, 3, 7, 10 and 15 following transplantation.

[8] = system: skin allograft (DA into Lewis); assay: Skin allograft survival; conditions: FK 0.1 mg/kg and/or AMD 1 mg/kg; controls rejected within 7 days
Description: DA rats or C57/B6 mice were used as skin donors and GFP transgenic Lewis rats were used as recipients. A graft bed (2.5×3 cm) was prepared on the back of a recipient rat; special care was given to preserving the panniculus carnosus. A 2.5×3 cm^2 graft, which had been prepared from the body trunk of a donor, was transplanted with interrupted sutures of 5-0 silk. The graft was covered with a protective tape and the first inspection was conducted 2 days after skin grafting and was followed by daily inspection. The rejection was defined as the day when the skin graft developed a red-brown color and hard consistency.
FK506 were injected subcutaneously every day following transplantation.

[9] = system: c-Kit+, CD133+, Lin− Thy1+c-Kit+CD133+ cells in peripheral blood; assay: Mobilization of stem cells into peripheral blood (CBC and flow cytometry); assay type: in vivo, rat; conditions: 3 hours after injection
Description: Single-cell suspensions (5×10^5) of peripheral blood monocytes were analyzed for lineage negative CD34, CD133, Thy1, and c-Kit expression. Nonspecific antibody binding was blocked with goat and rat serum (Sigma) for 30 minutes. Peripheral blood cells were isolated from animals at 3 hours after injection with AMD and/or FK. Complete blood count (CBC) was measured and stem cell markers were quantified by flow cytometry. The absolute number of stem cells was calculated as WBC (-thous./μL)×% of stem cells.

[10] = system: CD34+, c-Kit+, Thy-1+ and Sca1+ cells in peripheral blood; conditions: after liver transplantation, compared to control animals, AMD3100 1 mg/kg/day s.c.
Description: Single-cell suspensions (5×10^5) of peripheral blood monocytes were analyzed for CD34, CXCR4, c-Kit, Thy-1, and Sea-1 expression. Nonspecific antibody binding was blocked with goat and rat serum (Sigma) for 30 minutes.

CXCR4 chomokin receptor, sequence (P61073 whole entry): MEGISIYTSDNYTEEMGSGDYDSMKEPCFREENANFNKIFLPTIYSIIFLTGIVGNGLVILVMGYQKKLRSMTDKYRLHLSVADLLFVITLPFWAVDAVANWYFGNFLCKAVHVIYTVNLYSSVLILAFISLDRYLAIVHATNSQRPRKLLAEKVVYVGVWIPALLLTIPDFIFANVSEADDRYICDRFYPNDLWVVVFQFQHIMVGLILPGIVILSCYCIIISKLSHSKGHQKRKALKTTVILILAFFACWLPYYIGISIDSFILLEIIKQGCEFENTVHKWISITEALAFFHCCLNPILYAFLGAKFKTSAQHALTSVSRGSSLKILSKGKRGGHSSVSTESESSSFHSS

Molecule | IC50 [1] | mononuclear/inflammatory cellular infiltration in portal areas (H&E) ([2]; listed as AMD) | mononuclear/inflammatory cellular infiltration in portal areas (H&E) ([2]; listed as plerixafor) | recipient survival / liver allograft acceptance ([3]; listed as AMD) | recipient survival / liver allograft acceptance ([3]; listed as plerixafor) | skin xenograft survival [4] | IC50 [5] | recipient survival / kidney allograft acceptance [6] | recipient survival [7] | skin allograft survival / acceptance [8] | absolute number of c-Kit+, CD133+ or Lin− and Thy1+c-Kit+CD133+ triple positive cells in peripheral blood ([9]; compared to saline or G-CSF treated animals) | percentage of CD34+, c-Kit+, Thy-1+ and Sca1+ cells in peripheral blood ([10]; listed as AMD) | percentage of CD34+, c-Kit+, Thy-1+ and Sca1+ cells in peripheral blood ([10]; listed as plerixafor) | mononuclear/inflammatory cellular infiltration in portal areas (H&E) [2] | mononuclear/inflammatory cellular infiltration in portal areas (H&E) ([2]; listed as FK-506) | recipient survival / liver allograft acceptance ([3]; listed as FK-506) | recipient survival / liver allograft acceptance ([3]; listed as tacrolimus) | survival of one of five recipients [3] | survival of one of five recipients ([3]; 0.1 mg/kg/day) | c-Kit+ and CD133+ cells in peripheral blood ([9]; low-dose FK (0.1 mg/kg))
4F-benzoyl-TN14003 [BKT140] | ~1 nM |  |  |  |  |  |  |  |  |  |  |  |  |  |  |  |  |  |  | 
c1cc(CN2CCCNCCNCCCNCC2)ccc1CN1CCCNCCNCCCNCC1 [AMD3100, 1,1′-[1,4-phenylenebis(methylene)]bis-1,4,8,11-tetraazacyclo-tetradecane] |  | the number of infiltrating cells were less | the number of infiltrating cells was reduced | did not significantly prolong the recipient survival | did not significantly prolong recipient survival | did not prolong the xenograft survival | 51 ± 17 nM | did not prolong the recipient survival | did not significantly prolong recipient survival | did not significantly prolong the allograft survival | significantly increased | significantly increase | significantly increased |  |  |  |  |  |  | 
C=CC[C@@H]1/C=C(\C)C[C@H](C)C[C@H](OC)[C@H]2O[C@@](O)(C(=O)C(=O)N3CCCC[C@H]3C(=O)O[C@H](/C(C)=C/[C@@H]3CC[C@@H](O)[C@H](OC)C3)[C@H](C)[C@@H](O)CC1=O)[C@H](C)C[C@@H]2OC [Tacrolimus] |  |  |  |  |  | did not prolong the xenograft survival |  | did not prolong the recipient survival | did not significantly prolong recipient survival | did not significantly prolong the allograft survival |  |  |  | the number of infiltrating cells was reduced | the number of infiltrating cells were less | did not significantly prolong the recipient survival | did not significantly prolong recipient survival | 4 months | more than 1 months | significantly increases
